# In ChEMBL document CHEMBL1201862, “PubChem BioAssay data set” (2004):
#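 Step 1: Grow cells in 96-well plates. Step 2: Expose to compound for 48 hours at 5 concentrations. Step 3: Interpolate endpoints linearly; if unreached, use highest concentration. The concentration for 50% growth inhibition is given as GI50.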 Calls of active or inactive are those of the source. No stated cut-off is given here; in the data, active = GI50 up to about 1.1 µM and inactive = higher.
# Key:
# Experiment in all cases: DTP human tumour cell line panel, 48 h
# A549 = tested on: A549
# NCI-H522 = tested on: NCI-H522
# HOP-92 = tested on: HOP-92
# OVCAR-8 = tested on: OVCAR-8
# IGROV-1 = tested on: IGROV-1
# PC-3 = tested on: PC-3
# NCI-H23 = tested on: NCI-H23
# OVCAR-5 = tested on: OVCAR-5
# SK-MEL-5 = tested on: SK-MEL-5
# OVCAR-4 = tested on: OVCAR-4
# TK-10 = tested on: TK-10
# COLO 205 = tested on: COLO 205
# A498 = tested on: A498
# SW-620 = tested on: SW-620
# SK-OV-3 = tested on: SK-OV-3
# RPMI-8226 = tested on: RPMI-8226
# 786-0 = tested on: 786-0
# MDA-N = tested on: MDA-N
# SNB-75 = tested on: SNB-75
# UACC-257 = tested on: UACC-257
# U-251 = tested on: U-251
# ACHN = tested on: ACHN
# DU-145 = tested on: DU-145
# MCF7 = tested on: MCF7
# UACC-62 = tested on: UACC-62
# SF-295 = tested on: SF-295
# SR = tested on: SR
# KM12 = tested on: KM12
# HCT-15 = tested on: HCT-15
# OVCAR-3 = tested on: OVCAR-3
# NCI/ADR-RES = tested on: NCI/ADR-RES
# MOLT-4 = tested on: MOLT-4
# Hs-578T = tested on: Hs-578T
# NCI-H226 = tested on: NCI-H226
# NCI-H460 = tested on: NCI-H460
# MDA-MB-435 = tested on: MDA-MB-435
# EKVX = tested on: EKVX
# RXF 393 = tested on: RXF 393
# HCC 2998 = tested on: HCC 2998
# Malme-3M = tested on: Malme-3M
# HOP-62 = tested on: HOP-62
# K562 = tested on: K562
# T47D = tested on: T47D
# MDA-MB-231 = tested on: MDA-MB-231
# HL-60 = tested on: HL-60
# SK-MEL-28 = tested on: SK-MEL-28
# SK-MEL-2 = tested on: SK-MEL-2
# SNB-19 = tested on: SNB-19
# UO-31 = tested on: UO-31
# CAKI-1 = tested on: CAKI-1
# SN12C = tested on: SN12C
# HT-29 = tested on: HT-29
# HCT-116 = tested on: HCT-116
# SF-539 = tested on: SF-539
# M14 = tested on: M14
# CCRF-CEM = tested on: CCRF-CEM
# SF-268 = tested on: SF-268
# LOX IMVI = tested on: LOX IMVI
compound,measurement,setting,value
CC(C)(C)c1cc2c(O)c(c1)Cc1cc(C(C)(C)C)cc(c1O)Cc1cc(C(C)(C)C)cc(c1O)Cc1cc(C(C)(C)C)cc(c1O)Cc1cc(C(C)(C)C)cc(c1O)Cc1cc(C(C)(C)C)cc(c1O)Cc1cc(C(C)(C)C)cc(c1O)Cc1cc(C(C)(C)C)cc(c1O)C2,GI50,A549,> 50 µM (inactive)
same,GI50,NCI-H522,> 50 µM (inactive)
same,GI50,HOP-92,> 50 µM (inactive)
same,GI50,OVCAR-8,> 50 µM (inactive)
same,GI50,IGROV-1,> 50 µM (inactive)
same,GI50,PC-3,> 50 µM (inactive)
same,GI50,NCI-H23,> 50 µM (inactive)
same,GI50,OVCAR-5,> 50 µM (inactive)
same,GI50,SK-MEL-5,> 50 µM (inactive)
same,GI50,OVCAR-4,> 50 µM (inactive)
same,GI50,TK-10,> 50 µM (inactive)
same,GI50,COLO 205,> 50 µM (inactive)
same,GI50,A498,> 50 µM (inactive)
same,GI50,SW-620,> 50 µM (inactive)
same,GI50,SK-OV-3,> 50 µM (inactive)
same,GI50,RPMI-8226,> 50 µM (inactive)
same,GI50,786-0,> 50 µM (inactive)
same,GI50,MDA-N,> 50 µM (inactive)
same,GI50,SNB-75,> 50 µM (inactive)
same,GI50,UACC-257,> 50 µM (inactive)
same,GI50,U-251,> 50 µM (inactive)
same,GI50,ACHN,> 50 µM (inactive)
same,GI50,DU-145,> 50 µM (inactive)
same,GI50,MCF7,> 50 µM (inactive)
same,GI50,UACC-62,> 50 µM (inactive)
same,GI50,SF-295,> 50 µM (inactive)
same,GI50,SR,> 50 µM (inactive)
same,GI50,KM12,> 50 µM (inactive)
same,GI50,HCT-15,> 50 µM
same,GI50,OVCAR-3,> 50 µM (inactive)
same,GI50,NCI/ADR-RES,> 50 µM (inactive)
same,GI50,MOLT-4,> 50 µM (inactive)
same,GI50,Hs-578T,> 50 µM (inactive)
same,GI50,NCI-H226,> 50 µM (inactive)
same,GI50,NCI-H460,> 50 µM (inactive)
same,GI50,MDA-MB-435,> 50 µM (inactive)
same,GI50,EKVX,> 50 µM (inactive)
same,GI50,RXF 393,> 50 µM (inactive)
same,GI50,HCC 2998,> 50 µM (inactive)
same,GI50,Malme-3M,> 50 µM (inactive)
same,GI50,HOP-62,> 50 µM (inactive)
same,GI50,K562,> 50 µM (inactive)
same,GI50,T47D,> 50 µM (inactive)
same,GI50,MDA-MB-231,> 50 µM (inactive)
same,GI50,HL-60,> 50 µM (inactive)
same,GI50,SK-MEL-28,> 50 µM (inactive)
same,GI50,SK-MEL-2,> 50 µM (inactive)
same,GI50,SNB-19,> 50 µM (inactive)
same,GI50,UO-31,> 50 µM (inactive)
same,GI50,CAKI-1,> 50 µM (inactive)
same,GI50,SN12C,> 50 µM (inactive)
same,GI50,HT-29,> 50 µM (inactive)
same,GI50,HCT-116,> 50 µM (inactive)
same,GI50,SF-539,> 50 µM (inactive)
same,GI50,M14,> 50 µM (inactive)
same,GI50,CCRF-CEM,> 50 µM (inactive)
same,GI50,SF-268,> 50 µM (inactive)
CC(=O)[C@H]1[C@@H](OCc2ccccc2)O[N+]([O-])=C(C)[C@@H]1c1ccccc1,GI50,A549,53.2 µM (inactive)
same,GI50,NCI-H522,13.1 µM (inactive)
same,GI50,HOP-92,24.8 µM (inactive)
same,GI50,OVCAR-8,30.4 µM (inactive)
same,GI50,IGROV-1,35.8 µM (inactive)
same,GI50,PC-3,36.1 µM (inactive)
same,GI50,NCI-H23,54.7 µM (inactive)
same,GI50,OVCAR-5,> 100 µM (inactive)
same,GI50,SK-MEL-5,48.5 µM (inactive)
same,GI50,OVCAR-4,47.1 µM (inactive)
same,GI50,TK-10,56.1 µM (inactive)
same,GI50,COLO 205,42.7 µM (inactive)
same,GI50,A498,> 100 µM (inactive)
same,GI50,SW-620,17.4 µM (inactive)
same,GI50,SK-OV-3,> 100 µM (inactive)
same,GI50,RPMI-8226,14.7 µM (inactive)
same,GI50,786-0,17.6 µM (inactive)
same,GI50,MDA-N,41.7 µM (inactive)
same,GI50,SNB-75,> 100 µM (inactive)
same,GI50,UACC-257,34.7 µM (inactive)
same,GI50,U-251,44.5 µM (inactive)
same,GI50,ACHN,26.4 µM (inactive)
same,GI50,DU-145,43.8 µM (inactive)
same,GI50,MCF7,30.8 µM (inactive)
same,GI50,UACC-62,49.2 µM (inactive)
same,GI50,SF-295,75.2 µM (inactive)
same,GI50,SR,19.2 µM (inactive)
same,GI50,KM12,37.4 µM (inactive)
same,GI50,HCT-15,27.7 µM
same,GI50,OVCAR-3,24.7 µM (inactive)
same,GI50,NCI/ADR-RES,39.1 µM (inactive)
same,GI50,MOLT-4,17.2 µM (inactive)
same,GI50,Hs-578T,19.9 µM (inactive)
same,GI50,NCI-H226,52.1 µM (inactive)
same,GI50,NCI-H460,53.8 µM (inactive)
same,GI50,MDA-MB-435,45 µM (inactive)
same,GI50,EKVX,53.3 µM (inactive)
same,GI50,RXF 393,17.3 µM (inactive)
same,GI50,HCC 2998,> 100 µM (inactive)
same,GI50,Malme-3M,26.4 µM (inactive)
same,GI50,HOP-62,> 100 µM (inactive)
same,GI50,K562,14.5 µM (inactive)
same,GI50,T47D,21.3 µM (inactive)
same,GI50,MDA-MB-231,34.6 µM (inactive)
same,GI50,HL-60,19 µM (inactive)
same,GI50,SK-MEL-28,27.2 µM (inactive)
same,GI50,SK-MEL-2,63.2 µM (inactive)
same,GI50,SNB-19,97.3 µM (inactive)
same,GI50,UO-31,20.8 µM (inactive)
same,GI50,CAKI-1,23.6 µM (inactive)
same,GI50,HT-29,19.6 µM (inactive)
same,GI50,SF-539,18.6 µM (inactive)
same,GI50,M14,36.1 µM (inactive)
same,GI50,CCRF-CEM,14.9 µM (inactive)
same,GI50,LOX IMVI,21 µM (inactive)
same,GI50,SF-268,37.2 µM (inactive)
COc1ccc(C2(O)C(S(=O)(=O)c3ccc(C)cc3)=Cc3ccc(OC)cc32)cc1 (configuration not stated),GI50,A549,> 100 µM (inactive)
same,GI50,NCI-H522,39.9 µM (inactive)
same,GI50,OVCAR-8,44.3 µM (inactive)
same,GI50,IGROV-1,> 100 µM (inactive)
same,GI50,PC-3,53.8 µM (inactive)
same,GI50,NCI-H23,> 100 µM (inactive)
same,GI50,OVCAR-5,> 100 µM (inactive)
same,GI50,SK-MEL-5,> 100 µM (inactive)
same,GI50,TK-10,46.5 µM (inactive)
same,GI50,COLO 205,> 100 µM (inactive)
same,GI50,A498,44.5 µM (inactive)
same,GI50,SW-620,> 100 µM (inactive)
same,GI50,SK-OV-3,35.6 µM (inactive)
same,GI50,RPMI-8226,> 100 µM (inactive)
same,GI50,786-0,41 µM (inactive)
same,GI50,MDA-N,> 100 µM (inactive)
same,GI50,SNB-75,25.9 µM (inactive)
same,GI50,UACC-257,> 100 µM (inactive)
same,GI50,U-251,41.2 µM (inactive)
same,GI50,ACHN,37.4 µM (inactive)
same,GI50,DU-145,71.3 µM (inactive)
same,GI50,MCF7,35 µM (inactive)
same,GI50,SF-295,28.2 µM (inactive)
same,GI50,SR,> 100 µM (inactive)
same,GI50,KM12,> 100 µM (inactive)
same,GI50,HCT-15,> 100 µM
same,GI50,NCI/ADR-RES,> 100 µM (inactive)
same,GI50,MOLT-4,> 100 µM (inactive)
same,GI50,Hs-578T,23.6 µM (inactive)
same,GI50,NCI-H226,> 100 µM (inactive)
same,GI50,NCI-H460,> 100 µM (inactive)
same,GI50,MDA-MB-435,> 100 µM (inactive)
same,GI50,EKVX,78.2 µM (inactive)
same,GI50,HCC 2998,> 100 µM (inactive)
same,GI50,HOP-62,21.2 µM (inactive)
same,GI50,K562,> 100 µM (inactive)
same,GI50,T47D,69.5 µM (inactive)
same,GI50,MDA-MB-231,> 100 µM (inactive)
same,GI50,HL-60,22 µM (inactive)
same,GI50,SK-MEL-28,32.7 µM (inactive)
same,GI50,SK-MEL-2,43.2 µM (inactive)
same,GI50,SNB-19,43.7 µM (inactive)
same,GI50,SN12C,73.8 µM (inactive)
same,GI50,HT-29,> 100 µM (inactive)
same,GI50,HCT-116,> 100 µM (inactive)
same,GI50,SF-539,43.5 µM (inactive)
same,GI50,CCRF-CEM,> 100 µM (inactive)
same,GI50,LOX IMVI,> 100 µM (inactive)
same,GI50,SF-268,31.6 µM (inactive)
